Residues, ends and D or L forms follow the SMILES beside them. *: point of attachment. Boc = CC(C)(C)OC(=O)*
`O=C(Nc1cccc2cc(Cn3ccnc3)cnc12)c1c(Cl)cccc1Cl` gave a melting point of 177 to 179 °C. `CCc1cc(-c2ccc(-c3ccn(CC(=O)OC)n3)cc2)ccc1OC` showed a melting point of 116 to 120 °C. Compound `C=Cc1ccc2sc(S(N)(=O)=O)cc2c1` has a melting point of 168 to 170 °C. Compound `Nc1cc(-c2ccc([N+](=O)[O-])c(N)c2)ccc1[N+](=O)[O-]` has a melting point of 226 °C. In the case of `O=C(Nc1ccccn1)C(CC1CCCC1)c1ccc(Cl)c([N+](=O)[O-])c1` (stereo unspecified), the melting point is reported as 48 to 52 °C. With `CCOC(=O)C1=C(COCC(N)=S)NC(C)=C(C(=O)OC)C1c1ccccc1Cl` (stereo unspecified) the melting point was 149 to 150 °C. `COCCN1CCN(c2ccc(NC(=O)c3cnn(-c4ccc(Cl)cc4)c3C)cc2C#N)CC1` gave a melting point of 207 °C. With `CC(O)(c1nc2ccc(S(=O)(=O)c3ccccc3)cc2[nH]1)C(F)(F)F` (stereo unspecified) the melting point was 115 to 117 °C. In the case of `CCCN(CCN1CCN(C(=O)c2n[nH]c3ccccc23)CC1)C1CCc2c(O)cccc2C1` (stereo unspecified), the melting point is reported as 167 to 170 °C. Work on `CC1c2ccccc2-c2[nH]c3ccccc3c21` (stereo unspecified) yielded a melting point of 153 to 155 °C. Work on `N#CC(C#N)=C(N)NCCCc1ccccc1` yielded a melting point of 165 to 167 °C. Compound `Cc1cc(C)cc(COC(=O)C(Cc2c[nH]c3ccccc23)NC(=O)OC(C)(C)C)c1` (stereo unspecified) has a melting point of 152 to 153 °C. `COC(=O)CCCc1cc2nc(Cl)ccc2n1S(=O)(=O)c1ccccc1F` gave a melting point of 83 °C. `COC(=O)C(OC)c1ccc2oc(-c3ccc(Cl)cc3)nc2c1` (stereo unspecified) showed a melting point of 100 to 105 °C. `CC1(C)c2ccc(C(O)CN3CCN(c4n[nH]c5ccccc45)CC3)cc2C(C)(C)C1O` (stereo unspecified) showed a melting point of 104 to 110 °C. Work on `CC(=O)OCc1c(-c2cc(Nc3cc(CN4CCC4)n(C)n3)c(=O)n(C)n2)cccc1-n1ncc2cc(C(C)(C)C)cc(F)c2c1=O` yielded a melting point of 214 to 217 °C. `CCOc1ccc(C2=NN(C3CCN(S(C)(=O)=O)CC3)C(=O)[C@@H]3CC=CC[C@H]23)cc1OCC` showed a melting point of 99 to 102 °C. `Cc1cc2c(s1)CCCC1CC(=O)N(c3ccccc3)N=C21` (stereo unspecified) showed a melting point of 102 to 103 °C. In the case of `NC(=O)NC(=O)c1nc(Cl)c(Cl)[nH]1`, the melting point is reported as > 290 °C. With `COc1ccc(C(F)(F)C(F)(F)F)cc1C(C)=O` the melting point was 47 °C. With `COc1ccc(Cc2c(C)c3c(N)nc(N)nc3[nH]c2=O)cc1OC` the melting point was 346 to 348 °C. `CCOC(=O)/C=C/c1cn(Cc2ccc(OCc3ccccc3)cc2)nc1-c1ccccc1` showed a melting point of 94 to 95 °C. Work on `CCOC(=O)c1cnn2c1NCC=C2c1cccc(C(F)(F)F)c1` yielded a melting point of 108 to 110 °C. Compound `O=C1OCc2c1cc1ccc(Cl)cc1c2-c1ccc(Cl)cc1` has a melting point of 205 to 207 °C. `Cc1c(F)c(F)c(F)c2c1c(=O)c(C(=O)O)cn2-c1ccc(O)cc1` showed a melting point of 287 to 288 °C. With `CC(=O)N1CCC(CCCCC(=O)c2ccc(F)cc2)CC1` the melting point was 98 to 100 °C. In the case of `COc1cc(OC)c2c(=O)[nH]c(-c3cccc(N4CCN(C(C)C(N)=O)CC4)n3)nc2c1` (stereo unspecified), the melting point is reported as 149 to 150 °C. `COc1ccc2c(c1)S(=O)(=O)N(CCCN1CCN(c3ncccn3)CC1)C(=O)N2` showed a melting point of 178 °C. In the case of `O=C(Nc1c(Cl)cc(-c2n[nH]c(=O)o2)c2c1OCCO2)OCc1ccccc1`, the melting point is reported as 230 °C. Compound `CC(C)(C)c1csc(NC(=O)c2ccn3c(=O)c(/C=C/C(=O)O)c(N4CCC(OC(=O)NCCO)CC4)nc3c2)n1` has a melting point of 231 to 234 °C. `CC(C)C(NC(=O)c1ccc(C(=O)NCc2ccc(Cl)cc2)cc1)C(=O)N1CCCC1C(=O)NC(C(=O)C(F)(F)F)C(C)C` (mixture of isomers) showed a melting point of 87 to 89 °C. With `CC(=O)NC(C(=O)Nc1ccc(C(=O)O)cc1)c1ccc2c(c1)C(C)(C)CCC2(C)C` (stereo unspecified) the melting point was 258 to 259 °C. Compound `COc1ccc(N(c2ccc(-c3ccc(N(c4ccc(OC)cc4)c4cccc(C(F)(F)F)c4)cc3)cc2)c2cccc(C(F)(F)F)c2)cc1` has a melting point of 134 °C. `CCC1CC(=O)N(CCc2ccc(N)cc2)N=C1c1ccc(OC)c(OC)c1` (stereo unspecified) showed a melting point of 112 °C. `O=c1[nH]c2ccc(Cl)cc2n1CCN1CCCCC1` showed a melting point of 156 to 158 °C. Compound `O=c1[nH][nH]c(=O)n1-c1c(F)cc(Cl)c2c1CCCO2` has a melting point of 271 to 273 °C. For `CCCCCCCCCCCCCCCC(=O)N[C@@H](CSC[C@H](O)CO)C(=O)O`, the melting point was 110 °C. `O=C(O)c1cc2c(cc1C(=O)O)COCC2` showed a melting point of 179 to 181 °C. `COc1ccc2nc(-n3ccnc3)nc(NCCSC)c2c1` gave a melting point of 168 to 178 °C. Compound `NC(=O)CON=c1c2nccc3cccc(c32)n2cccc12` has a melting point of 252 °C. With `O=C(NNc1ccccc1)c1ccccc1O` the melting point was 259 °C. `COc1ccc(C(=O)O)cc1C1(C)CCCCC1` showed a melting point of 199 °C. Compound `CC(=O)c1c(NC(=O)c2ccc(C)cc2)cccc1C(F)(F)F` has a melting point of 171 °C. For `CCCS(=O)(=O)c1cc([C@H]2CC[C@H](c3cc(OC)c(OC)c(OC)c3)O2)cc(OC)c1OCCSc1ccc(N(C)C)cc1` (relative stereo), the melting point was 113 to 115 °C. In the case of `CCOC(=O)c1cnn(-c2c(Cl)cc(Cl)cc2Cl)c1C`, the melting point is reported as 112 to 113 °C. In the case of `O=c1ccn(-c2ccc3[nH]c(=O)c(=O)[nH]c3c2)cc1`, the melting point is reported as > 300 °C. In the case of `CCCCc1nc2c(N)nc3ccccc3c2s1`, the melting point is reported as 149 to 151 °C. For `CCc1nc(N)nc(N)c1CCCCc1cc(Cl)c(Cl)cc1Cl`, the melting point was 158 to 163 °C. With `COc1ccc(C2=NN(C3CCN(C(=O)CCSCCN)CC3)C(=O)[C@@H]3CC=CC[C@H]23)cc1OC` the melting point was 137 to 139 °C. Work on `CC(C)c1ccc(N(Cc2ccc(N(C)C)cc2)C(=O)C2CCCc3ccccc32)cc1` (stereo unspecified) yielded a melting point of 121 °C. For `O=S(=O)(Nc1ccc(C(F)(F)F)cc1I)c1ccccc1`, the melting point was 84 to 86 °C. For `O=C(CCl)Cc1nc2ccccc2c(=O)n1-c1ccc(Cl)cc1`, the melting point was > 275 °C. `Cc1c(C)c2c(c(C)c1N)CC(C)(CCc1ccc(F)cc1)O2` (stereo unspecified) gave a melting point of 62 to 63 °C. `O=C(Nc1ccc(Oc2ccccc2)cc1)N1CCN(c2ncnc3ccccc23)CC1` showed a melting point of 74 to 75 °C. Compound `C=CC(=O)NCN1CCCC1=O` has a melting point of 73 to 74 °C. Work on `OC(=Cc1ccccc1)C(O)C(O)C(O)C(O)C(O)=Cc1ccccc1` (stereo unspecified) yielded a melting point of 210 °C. Work on `COc1ccc(-c2c(-c3ccc(S(N)(=O)=O)cc3)[nH]c3ccccc23)cc1` yielded a melting point of 280 to 282 °C. Work on `CN(C)Cc1ccc2nc(NC(=O)c3ccc(C(C)(C)C)cc3)cn2c1` yielded a melting point of 236 to 237 °C. `O=C(O)CNC1=Nc2ccc(Cl)cc2C(c2ccccc2)=NC1` gave a melting point of 215 to 220 °C. In the case of `CCCC1=C(C(=O)OCC)C(c2cccc(Cl)c2Cl)c2c[nH]nc2N1` (stereo unspecified), the melting point is reported as 220 °C. `CC(=O)OC(Cn1cncn1)(c1ccc(F)cc1F)C1(S(=O)(=O)Cl)CC1` (racemic) showed a melting point of 163 to 165 °C. In the case of `CCC(C)N(C)C(=O)c1nc(-c2ccccc2)c2ccccc2n1` (stereo unspecified), the melting point is reported as 128 °C. `CON=C1CCC(C)(C)c2cc(C)c(-c3cc(C=C4SC(=O)NC4=O)ccc3Cl)cc21` gave a melting point of 252 to 254 °C. For `COc1cc2c3c(n(C)c(=O)c2cc1OC)-c1cc2c(cc1C3=CCCCCl)OCO2`, the melting point was 196 to 201 °C. Compound `COCCN1CCN(CCc2ccc(Nc3ncc4c(n3)-c3ccccc3C(c3ccc(Cl)c(Cl)c3)C4)cc2)CC1` (stereo unspecified) has a melting point of 121 to 122 °C. In the case of `CC(C)Cc1nc(-c2cccnc2)c[nH]c1=O`, the melting point is reported as 195 to 196 °C. For `CC(=O)N1CCn2nc(-c3ccc(F)cc3)c(-c3ccncc3)c2N1`, the melting point was 216 to 218 °C. `CSCCC(NC(=O)C(CC(C)C)NC(=O)CNC(=O)C(NC(=O)C(Cc1ccccc1)NC(=O)C(C)NC(=O)OC(C)(C)C)C(C)C)C(=O)O` (stereo unspecified) (Boc-AFVGLM-OH; configuration not given here) gave a melting point of 252 to 281 °C. In the case of `O=C1CCC(N2Cc3c(OCc4ccc(CN5CCC(C(F)(F)F)CC5)cc4)cccc3C2=O)C(=O)N1` (stereo unspecified), the melting point is reported as 178 to 180 °C. Work on `CCCC(=O)c1cnc2c(OC)cccc2c1Nc1ccccc1OC` yielded a melting point of 159 to 161 °C. `CC(=Cc1ccccc1)c1ccc2c(c1)OCCC2(C)C` gave a melting point of 44 to 46 °C. `C[C@H](CN1CC(C#N)C1)NC(=O)c1c[nH]c2ncc(-c3nn(C)c4cc(Cl)ccc34)nc12` showed a melting point of 235 to 238 °C. `O=C(NCCCc1c[nH]c(-c2ccc(F)cc2)c1-c1ccncc1)C(F)(F)F` gave a melting point of 229 to 230 °C. For `COC(=O)CN(CC(=O)OC)c1cc(OCCCCCCCCCCCCOc2ccccc2)cc(OCCCOc2ccc(S(C)=O)cc2)c1` (stereo unspecified), the melting point was 47 to 49 °C. `CCCCCCCCSc1nc(Nc2cc(C)c(O)c(C(C)(C)C)c2)nc(NC2CC(C)(C)NC(C)(C)C2)n1` showed a melting point of 133 °C. In the case of `Cc1ccc(CSc2ccc(Cl)cc2)cc1`, the melting point is reported as 72 to 73 °C. `O=C(Cl)[C@@H]1CCC(=O)N1C(=O)OCc1ccccc1` showed a melting point of 65 to 70 °C. `Cc1ccc2nc(-c3ccc(Cl)cc3)c(CN3CCCC3=O)n2c1` showed a melting point of 186 to 188 °C. Compound `CN(C)[C@H]1CC[C@H](NC(=O)OC(C)(C)C)C1` has a melting point of 65 to 67 °C. For `N#CC(C(=O)c1ccc(Cl)cc1)=C1CCCN1`, the melting point was 156 to 158 °C. Compound `C[Si](C)(C)C#Cc1ccc(Br)cc1` has a melting point of 62 °C. Compound `O=[N+]([O-])c1cnc(-c2ccccc2)nc1Cl` has a melting point of 160 to 161 °C. Work on `O=C(c1ccccc1)N1CCn2c(CN3CCCCC3)ccc2C1` yielded a melting point of 95 to 96 °C. In the case of `COc1cc(Nc2ccnc(Nc3cc(OC)c(OC)c(OC)c3)n2)cc(OC)c1OC`, the melting point is reported as 180 °C. `O=P(O)(O)C(O)(CC1(c2ccc(Cl)cc2)C=CN(c2ccccc2)N1)P(=O)(O)O` (stereo unspecified) gave a melting point of 199 °C. Work on `O=C(Nc1nnc[nH]1)c1ccc2ccccc2c1` yielded a melting point of 191 to 192 °C. Work on `CC(=O)c1cccc(-c2ccc(O)cc2)c1` yielded a melting point of 146 to 149 °C. Compound `Cc1c([N+](=O)[O-])cnc(Oc2ccc(Cl)c(C(F)(F)F)c2)c1Br` has a melting point of 73 to 74 °C. `CCCCCCCCCC(=O)OC1CCC2(CC(=O)N(CCCCN3CCN(c4nsc5ccccc45)CC3)C(=O)C2)C1` (stereo unspecified) gave a melting point of 117 to 119 °C. `CCCCC=CC(=O)Nc1ccccc1` showed a melting point of 50 °C. Work on `CC1c2ccccc2Nc2nccn21` (stereo unspecified) yielded a melting point of 171 to 172 °C. In the case of `Clc1ccc(C2(c3ccc4noc(-c5ccccc5)c4c3)OCCO2)cc1`, the melting point is reported as 143 °C. Compound `CCOC(=O)c1cn(CC)c2c(F)c(C)c(F)cc2c1=O` has a melting point of 147 to 150 °C. With `O=c1[nH]c2c(OC3CNC3)cccc2n1Cc1ccccc1` the melting point was 181 to 184 °C. Compound `CN1C(=O)CCc2cc(Cl)ccc21` has a melting point of 76 to 78 °C. In the case of `N#Cc1c(Cl)cccc1SSc1ccc([N+](=O)[O-])cc1C(Cl)(Cl)Cl`, the melting point is reported as 137 °C.

— a melting point compilation (Tetko et al.; mined from patent text by program, amines drawn as free bases though some values may be those of a salt)
